Key:
Format in all cases: in vivo, male rats of Wistar strain
[1] = test system: carragheenin induced plantar edema; assay: Anti-inflammatory action, carragheenin induced plantar edema method; conditions: rat, oral, 5 mg/kg in terms of Indometacin
Procedure: The anti-inflammatory action of the Indometacin-albumin composition can also be proven by the following test by carragheenin induced plantar edema method.
A wide-mouthed glass container filled with water was placed on an electronic even balance. Into the water was immersed the sole of the right hind leg of rat up to the borders of the hair, and the resulting weight increase was measured to obtain a volume of the sole.
Three groups of male rats of Wistar strain each weighing 150-180 g (one group consisted of 6 such rats) were fasted for 18 hours and then measured for their sole volumes. These volumes were each taken as a sole volume before administration.
As test samples, there were used two suspensions, i.e. a suspension obtained by suspending the Indometacin-egg albumin composition (Indometacin 3 g / egg albumin 30 g) obtained in Example 24 (described later) in 1% CMCNa in an amount of about 5 mg/kg in terms of Indometacin and a suspension obtained by suspending an Indometacin powder in 1% CMCNa in an amount of 5 mg/kg in terms of Indometacin. These suspensions were orally administered to two sample groups at a proportion of 0.5 ml/100 g (rat). At 30 minutes after the oral administration, 0.1 ml of a physiological saline solution containing 1% of λ-carragheenin was subcutaneously administered to each rat at the sole of right hind leg and, immediately, 5 ml of water was administered orally. In 1, 3 and 5 hours after the administration of the 1% λ-carragheenin solution, the sole volume of each rat was measured. Then, the swelling percent of each individual rat, the average swelling percent of each group and the corresponding inhibition ratio were calculated according to the following formulae.
As a control sample, there was used 1% CMCNa, and it was orally administered to one control group at a proportion of 0.5 ml/100 g (rat). The results were compared with those of the sample-administered groups.
Swelling percent (%)=((B-A).div.A)×100
Inhibition ratio (%)=((C-D).div.C)×100
A: Sole volume before administration
B: Sole volume after administration
C: Average swelling percent of control group
D: Average swelling percent of sample group

[2] = test system: stomach mucous membrane (ulcer); assay: Formation of stomach ulcer by Indometacin-albumin composition; conditions: rat, fasted, oral, 20 mg/kg in terms of Indometacin, 7 hours
Procedure: It is known that while non-steroidal anti-inflammatory agents show a strong anti-inflammatory action to inflammation-affected parts, they cause hemorrhage and ulcer to the digestive system.
The test was conducted according to the method by Okabe et al. (J. Jap. Pharmacol. Vol. 29, 670 (1979)). That is, two groups of male rats of Wistar strain each weighing 180-200 g (one group consisted of 8 such rats) were fasted for about 18 hours. As test samples, there were used suspensions obtained by suspending the Indometacin-albumin composition (Indometacin 3 g albumin 30 g) obtained in Example 23 or 24 (described later) in a 1% carboxymethyl cellulose sodium solution (hereinafter referred to as 1% CMCNa) in an amount of 20 mg/kg in terms of Indometacin. These suspensions were orally administered to the rats at a proportion of 0.5 ml/100 g (rat). As a control sample, a suspension obtained by suspending an Indometacin powder in 1% CMCNa in an amount of 20 mg/kg was administered similarly. After 7 hours from the administration, all the rats were sacrificed under etherization. 8 ml of a 1% aqueous buffered formalin solution was injected into the stomach of each rat. […] Thereafter, the stomach was incised along the greater curvature and the lesioned portions (ulcer portions) generated in the mucous membrane were measured for their major axes (mm) under a stereoscopic microscope. […]

[3] = Absorption of nalidixic acid-albumin composition by gastrointestinal tract (oral, rat serum level)
Procedure: It was made clear from the following test that the nalidixic acid-albumin composition (nalidixic acid content: 8.9%) obtained according to the present invention improves the absorption of nalidixic acid administered after meals.
Male rats of Wistar strain each weighing about 290 g obtained from Sankyo Labo. were used under a satiety condition.
The administration amount was 50 mg/kg in terms of nalidixic acid. A composition was administered in a form of its suspension in 1 ml of water, using an oral sonde. About 0.2 ml of blood was drawn from the eyeground of rat using a capillary (Drummond, 0.1 ml) and then centrifuged to obtain a serum.
The serum was mixed with an equal volume of methanol to deproteinize the serum. The determination for the deproteinized serum was conducted according to high performance liquid chromatography.
Column: ODS-80TM manufactured by TOYO SODA, 4.6 mm×15 cm
Mobile phase: Acetonitrile: 50 mM citric acid solution: 1 M ammonium acetate =35 : 64 : 1
Detection wavelength: 258 nm
Column temperature: Room temperature
The calibration curve was obtained by adding known nalidixic acid to a blank serum and subjecting the mixture to the same procedure as for the sample.

Row | SMILES | Swelling percent, 1 hr ([1]; 1 hr after λ-carragheenin) | Swelling percent, 3 hr ([1]; 3 hr after λ-carragheenin) | Swelling percent, 5 hr ([1]; 5 hr after λ-carragheenin) | Inhibition ratio, 1 hr ([1]; vs 1% CMCNa control, 1 hr after λ-carragheenin) | Inhibition ratio, 3 hr ([1]; vs 1% CMCNa control, 3 hr after λ-carragheenin) | Inhibition ratio, 5 hr ([1]; vs 1% CMCNa control, 5 hr after λ-carragheenin) | Incidence [2] | Ulcer index (Mean ± S.E.) ([2]; total of major axes (mm) of ulcers) | AUC at 8 h ([3]; 50 mg/kg in terms of nalidixic acid, 0-8 hours, read-out: area below the blood concentration-time curve (AUC) between 0 and 8 hours) | Tmax ([3]; 50 mg/kg in terms of nalidixic acid, satiety condition, read-out: time at which blood concentration of nalidixic acid reached the maximum) | Cmax ([3]; same amount (50 mg/kg), satiety condition, read-out: maximum blood concentration of nalidixic acid (powder, unit printed as μg))
1 | COc1ccc2c(c1)c(CC(=O)O)c(C)n2C(=O)c1ccc(Cl)cc1 [Indometacin powder, Indometacin] | 10.3% | 8.4% | 8.5% | 39.4% | 52.5% | 60.5% | 100.0% | 341.7 ± 49.9 |  |  | 
2 | CCn1cc(C(=O)O)c(=O)c2ccc(C)nc21 [nalidixic acid powder, nalidixic acid] |  |  |  |  |  |  |  |  | 34600 ng·h/mL | 3 h | ~7000 ng/mL

Source: patent US5051406A, “Pharmaceutical composition using albumin as a carrier and process for producing the same” (Nippon Hypox Laboratories Incorporated, priority 1987, dated 1991)
